Source: patent US20040102365A1, “Pharmaceutical composition for prevention and remedy of osteoporosis” (priority 2003, published 2004)
Where a SMILES comes first, the peptide text is derived from it. [ ]: non-standard residue; d: D form. dLac(3-vinyl) = C=CC[C@@H](O)C(=O)O; dHica = CC(C)C[C@@H](O)C(=O)O; NMeV = CN[C@H](C(=O)O)C(C)C; NMeA = CN[C@@H](C)C(=O)O; βAla = NCCC(=O)O

What was measured:
osteoclasts [1] = assay: Effect on the morphology and survival of osteoclasts; format: cell-based, mouse
osteoclasts [2] = assay: Pit formation assay (bone resorption by osteoclasts on bone fragments); format: cell-based, mouse; set-up: Inhibitory Activity versus pit formation: unit not given here
Protocol: Since most osteoclasts growing on bone surfaces have the ability to absorb bone, leaving pits, whether the osteoclasts prepared in Example 1 have bone resorption ability or was not determined by analyzing the number and volume of pits.
Bone fragments were prepared in a thickness of 1 mm, put in methanol, disinfected under UV light on a clean bench, and then transferred to wells of a 96-well plate, after which 100 μl α-MEM medium (10% FCS) was added. […] After incubation for 1 day, bone fragments and osteoclasts growing on them were observed micoscopically and then stored at 4° C.

osteoclasts [3] = assay: Actin ring assay; format: cell-based, mouse
Protocol: In order to observe the formation and shape of actin rings, which function to support the cytoskeleton structure of osteoclasts, an actin ring assay was performed. After removing culture medium, osteoclasts cultured in the presence or absence of destruxin E were fixed with formalin for 10 mins, washed once with a solution containing Tween 20, and treated with 300 U rhodamine phalloidin (Sigma, USA) dissolved in methanol in a dark room.

[4] = tested on: ^45Ca-labelled fetal radius and ulna, organ culture; assay: Inhibition of ^45Ca release in mouse organ culture (PTH-induced calcium release); format: cell-based, ddY mice
Protocol: 15 to 16 days pregnant ddY mice were injected subtaneously with a solution of ^45Ca-labelled calcium chloride to label their bone. After one day, mice were anesthetized with ether, and disinfected in 70% ethanol. Fetuses were obtained from, and transferred to a sterile dish. Under a stereo microscope, after cutting forelegs and peeling off skin thereof, attached muscle was removed from radius and ulna, and cartilage portions existing at the both ends of the two bones were then obtained. During the preparation, the bones were kept moist. Before culturing, a stainless steel membrane was put into a 24-well plate containing 0.5 mL BGJb medium (Gibco, USA), and the obtained bone was then placed onto the membrane. After incubation for 24 hours, bone was transferred to destruxin E-containing medium and further incubated for 72 hours. Herein, parathyroid hormone (PTH) inducing release of calcium was used, and the inhibitory effect of destruxin E on the calcium release by PTH was analyzed. The amounts of ^45Ca remaining in bone and released to medium were measured using 5% TCA, and bone-resorbing activity was calculated as follows.
Bone-resorbing activity=released amount of ^45Ca to medium/(released amount of ^45Ca to medium+amount of ^45Ca remaining in bone)×100

Compound | MIC: Minimum Inhibitory Concentration at which survival of all osteoclasts is inhibited (osteoclasts [1]) [µM] | Inhibitory Activity versus pit formation (osteoclasts [2]; 0.1 μM destruxin B) | Inhibitory Activity versus pit formation (osteoclasts [2]; 0.5 μM destruxin B) | Inhibitory Activity versus pit formation (osteoclasts [2]; 1 μM destruxin B) | Inhibitory Activity versus pit formation (osteoclasts [2]; 5 μM destruxin B) | IC50 (osteoclasts [2]; read-out: 50% inhibition (IC50) of pit formation) [nM] | Inhibitory Activity versus actin ring (%) (osteoclasts [3]; 0.1 μM destruxin B) | Inhibitory Activity versus actin ring (%) (osteoclasts [3]; 0.5 μM destruxin B) | Inhibitory Activity versus actin ring (%) (osteoclasts [3]; 1 μM destruxin B) | Inhibitory Activity versus actin ring (%) (osteoclasts [3]; 5 μM destruxin B) | IC50 (osteoclasts [3]; read-out: 50% inhibition (IC50) of actin ring formation) [nM] | Inhibitory effect on ^45Ca release, destruxin E compared with eel calcitonin [4]
C=CC[C@H]1OC(=O)CCNC(=O)[C@H](C)N(C)C(=O)[C@H](C(C)C)N(C)C(=O)[C@H]([C@@H](C)CC)NC(=O)[C@@H]2CCCN2C1=O [Destruxin A] (cyclo([dLac(3-vinyl)]PI[NMeV][NMeA][βAla])) | 20 | – | – | – | – | – | – | – | – | – | – | –
CC[C@H](C)[C@@H]1NC(=O)[C@@H]2CCCN2C(=O)[C@@H](CC(C)C)OC(=O)CCNC(=O)[C@H](C)N(C)C(=O)[C@H](C(C)C)N(C)C1=O [Destruxin B] (cyclo([dHica]PI[NMeV][NMeA][βAla])) | 10 | 25 | 71 | 94 | 100 | 200 | 12 | 41 | 92 | 100 | 600 | –
eel calcitonin | – | – | – | – | – | – | – | – | – | – | – | the inhibitory effect of destruxin E is higher than that of eel calcitonin
